Results taken from patent EP1272183B1, “METHODS AND COMPOSITIONS USEFUL IN ENHANCING OXYGEN DELIVERY TO CELLS” (Niadyne Corporation, priority 2000, dated 2001).

Legend:
[1] = system: skin of human volunteers; test: Visual observation of vasodilation (blushing) after topical application of niacin ester lotions to the forearm; type: in vivo; conditions: for Vasodilation at 0.1% / Vasodilation Effect at 0.1% Duration / Vasodilation Effect at 0.1% Onset: 0.1% in skin lotion; for Vasodilation at 0.1% / Vasodilation at 1.0%: anterior surface of forearm, visual observation of blushing; for Vasodilation at 1.0%: 1.0% in skin lotion; for Vasodilation Effect at 0.1% Duration / Vasodilation Effect at 0.1% Onset: visual determination
Description: This example details the first of two sets of experiments designed to determine the vasodilation effect of alkyl niacin esters. Formulations were prepared by combining the alkyl esters referred to supra in a skin lotion, at 0.1% and 1.0% concentrations. The lotions were applied topically to the skin of human volunteers on the anterior surface of a forearm. Vasodilation was observed visually, i.e., by observing blushing at the site of application, or lack thereof. Both onset and duration of vasodilation were measured.
Table 1: Properties of Niacin Esters

[2] = Determination of log P (Poct/w) values in accordance with Harnisch, et al.; type: physicochemical; conditions: experimentally determined, following Harnisch
Description: The Poct/w values for these compounds were determined in accordance with Harnisch, et al., J. Chromatog.

[3] = system: skin; test: Skin oxygen and CO2 content measured with a transcutaneous monitor after topical application; type: in vivo, human
Description: To examine this issue, the oxygen content of skin to which the octyl ester discussed supra was determined directly, using a transcutaneous oxygen monitor. The 1% formulation of the octyl ester was applied to skin for 30 minutes. After this thirty minute period, the skin was cleaned with soap and water, wiped with an alcohol swab, and a drop of deionized water was placed on the sensor surface before its attachment to the anterior surface of the volunteers' forearms. The transcutaneous values were recorded constantly, and stored by the instrument. The monitor measures relative oxygen content, because the temperature at which the monitor operates does impact the oxygen permeability of the stratum corneum. See, e.g., Martin, Resp. […] The sensor was calibrated at 4 hour intervals, or whenever the sensor temperature was changed.
The monitor was operated at a temperature of 40°C. Values are given for both a control, and the formulation described herein.
In a follow-up experiment, the monitor was op erated at 38°C, and both O2 and CO2 were measured, with a combined transcutaneous oxygen and CO2 monitor. […] The control is represented by the dotted line.
Parallel experiments were carried out using 0.1% octyl niacin ester lotion, and a lotion containing octyl niacin ester (0.1 %), and 0.1 % butyl benzoate.
Oxygen content was measured in the same way as is described, supra, or using other techniques known to the art.

[4] = monitor at 38°C, versus control, Figure 3

SMILES | Vasodilation at 0.1% [1] | Vasodilation at 1.0% [1] | logP [2] | also measured
COC(=O)c1cccnc1 [1 carbon] | Yes | Yes |  | 
CCOC(=O)c1cccnc1 [2 carbons, Ethyl niacin] | Yes | Yes |  | Vasodilation Effect at 0.1% Duration [1]: 30 to 45 min; Vasodilation Effect at 0.1% Onset [1]: 5 to 10 min
CCCCOC(=O)c1cccnc1 [4 carbons] | Yes | Yes | 2.4 | 
CCCCCCOC(=O)c1cccnc1 [6 carbons, Hexyl niacin] | Yes | Yes | 3.5 | Vasodilation Effect at 0.1% Duration [1]: 60 to 90 min; Vasodilation Effect at 0.1% Onset [1]: 10 to 15 min
CCCCCCCCOC(=O)c1cccnc1 [8 carbons, Octyl niacin] | Yes | Yes |  | Vasodilation Effect at 0.1% Duration [1]: 240 to 360 min; Vasodilation Effect at 0.1% Onset [1]: 10 to 20 min; Vasodilation Effect at 0.1% Duration ([1]; listed as C8): longest effect; skin oxygen (transcutaneous oxygen monitor) ([3]; 1% formulation applied to skin for 30 minutes, monitor at 40°C, versus control, Figure 2): sustained increase in skin oxygen; CO2 content (combined transcutaneous oxygen and CO2 monitor) [3, 4]: decrease in CO2 content; skin oxygen content (combined transcutaneous oxygen and CO2 monitor) [3, 4]: sustained increase in skin oxygen content
CCCCCCCCCOC(=O)c1cccnc1 [9 carbons] | No | Yes |  | Vasodilation at 1.0% ([1]; listed as C9): caused vasodilation
CCCCCCCCCCOC(=O)c1cccnc1 [10 carbons] | No | Yes | 5.8 | Vasodilation at 1.0% ([1]; listed as C10): caused vasodilation
CCCCCCCCCCCOC(=O)c1cccnc1 [11 carbons] | No | Slight |  | 
CCCCCCCCCCCCOC(=O)c1cccnc1 [12 carbons] | No | No |  | logP ([2]; octanol/water): 6.6
CCCCCCCCCCCCCOC(=O)c1cccnc1 [13 carbons] | No | No | 7.5 | 
CCCCCCCCCCCCCCOC(=O)c1cccnc1 [14 carbons] | No | No |  | logP ([2]; octanol/water): 7.6
CCCCCCCCCCCCCCCOC(=O)c1cccnc1 [15 carbons] | No | No | 8.3 | 
CCCCCCCCCCCCCCCCOC(=O)c1cccnc1 [16 carbons] | No | No | 9.2 | 
CCCCCCCCCCCCCCCCCCOC(=O)c1cccnc1 [18 carbons] | No | No | 9.7 | 
CCCCOC(=O)c1ccccc1 [Butyl benzoate, reference compound] |  |  |  | chromatographic logP ([2]; octanol/water): 3.5; effect on the increase in oxygen content caused by octyl niacin ester ([3]; lotion containing octyl niacin ester (0.1 %) and 0.1 % butyl benzoate versus 0.1% octyl niacin ester lotion, Figure 4): blocked the increase in oxygen content
